Results from the supplement of paper PMC10307832.

How the values were obtained:
Assay in all cases: relative viability (nuclei count vs DMSO), 5 days (fraction); higher = more cells survive
[1] = compound: CN(C)C(=N)NC(=N)N [Metformin] + CS(=O)(=O)N1CCN(Cc2cc3nc(-c4cccc5[nH]ncc45)nc(N4CCOCC4)c3s2)CC1 [Pictilisib] (partner 1 µM)
Procedure, shortened: (§1)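 Lung cancer cell lines in 1536-well plates got either a single drug or a fixed anchor-drug dose together with five library-drug doses (not always all listed) in √10 steps, by pin tool, on the day after seeding. Nuclei were counted after 5 days, and relative viability is the treated-to-vehicle ratio of nuclei counts. Values are medians of duplicate plates.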

[2] = compound: CN(C)C(=N)NC(=N)N [Metformin] + Nc1ncn([C@H]2C[C@H](O)[C@@H](CO)O2)c(=O)n1 [Decitabine] (partner 2 µM)
Procedure, shortened: as §1

[3] = compound: N#CC1(c2ccc(NC(=O)c3cccnc3NCc3ccncc3)cc2)CCCC1 [Apatinib] + CC(=O)Nc1cccc(-n2c(=O)n(C3CC3)c(=O)c3c(Nc4ccc(I)cc4F)n(C)c(=O)c(C)c32)c1 [Trametinib] (partner 0.02 µM)
Procedure, shortened: as §1

[4] = compound: N#CC1(c2ccc(NC(=O)c3cccnc3NCc3ccncc3)cc2)CCCC1 [Apatinib] + NC(=O)Nc1cc(-c2cccc(F)c2)sc1C(=O)N[C@H]1CCCNC1 [AZD7762] (partner 0.2 µM)
Procedure, shortened: as §1

Cell Line	relative viability ([1]; first compound 10 µM)	relative viability ([1]; first compound 31.62 µM)	relative viability ([1]; first compound 100 µM)	relative viability ([1]; first compound 316.23 µM)	relative viability ([1]; first compound 1000 µM)	relative viability ([2]; first compound 10 µM)	relative viability ([2]; first compound 31.62 µM)	relative viability ([2]; first compound 100 µM)	relative viability ([2]; first compound 316.23 µM)	relative viability ([2]; first compound 1000 µM)	relative viability ([3]; first compound 0.08 µM)	relative viability ([3]; first compound 0.253 µM)	relative viability ([3]; first compound 0.8 µM)	relative viability ([3]; first compound 2.53 µM)	relative viability ([3]; first compound 8 µM)	relative viability ([4]; first compound 0.08 µM)	relative viability ([4]; first compound 0.253 µM)	relative viability ([4]; first compound 0.8 µM)	relative viability ([4]; first compound 2.53 µM)	relative viability ([4]; first compound 8 µM)
RERF-LC-KJ	0.57	0.55	0.53	0.402	0.614	0.687	0.703	0.505	0.556	0.514	0.89	0.849	0.891	0.758	0.711	0.844	1.02	1.04	0.779	0.759
NCI-H647	0.469	0.535	0.479	0.441	0.292	0.316	0.366	0.381	–	0.434	0.547	0.501	0.457	0.439	0.315	–	0.482	0.372	0.341	0.344
NCI-H1395	0.64	0.728	0.653	0.81	0.593	0.661	0.758	0.719	0.713	0.382	1.03	1.05	0.915	0.965	0.965	0.438	0.425	0.407	0.361	0.373
NCI-H522	–	–	–	–	–	0.659	0.599	0.679	0.648	0.7	0.799	0.77	0.731	0.592	0.68	0.884	1	0.867	0.623	0.794
NCI-H322M	0.471	0.52	0.491	0.469	0.43	0.698	0.673	0.718	0.675	0.746	0.506	0.651	0.494	0.545	0.425	0.553	0.58	0.549	0.471	0.471
H3255	0.388	0.53	0.4	0.46	0.478	0.531	0.665	0.596	0.61	0.624	0.655	0.588	0.669	0.597	0.535	0.824	0.882	0.851	0.736	0.718
201T	–	0.709	0.701	0.688	0.685	–	0.824	0.805	0.799	0.776	0.731	0.725	0.68	0.729	0.607	0.691	0.701	0.565	0.5	0.471
